Experimental data taken from ChEMBL document CHEMBL1212867, “Anhydrotetracycline-peptide conjugates as representatives for ligand-based transactivating systems” (Bioorg Med Chem, 2010).
Non-standard residues stand in square brackets, D forms with d. Residues, ends and D or L forms follow the SMILES beside them. *: point of attachment. X1 = Cc1c2c(c(O)c3c(O)c(N*)ccc13)C(=O)[C@]1(O)C(=O)C(C(N)=O)=C(O)[C@@H](N(C)C)[C@@H]1C2; AEEEA = NCCOCCOCCOCC(=O)O

Experiments:
HeLa [1] = test: Transactivation of Reverse transactivator Tet repressor-S3 SL439, FG442, SL444 and FA475 mutant expressed in human HeLa cells at 5 uM after 24 hrs by luciferase reporter gene assay relative to untreated basal level; type: cell-based
HeLa [2] = test: Transactivation of reverse transactivator Tet repressor-S3 expressed in human HeLa cells at 5 uM after 24 hrs by luciferase reporter gene assay relative to anhydrotetracycline; type: cell-based

Row | SMILES | fold change (FC) (HeLa [1]) | Activity (HeLa [2]) [%]
1 | Cc1c2c(c(O)c3c(O)cccc13)C(=O)[C@]1(O)C(=O)C(C(N)=O)=C(O)[C@@H](N(C)C)[C@@H]1C2 | 3 | –
2 | CSCC[C@H](NC(=O)[C@H](CC(=O)O)NC(=O)[C@H](CC(C)C)NC(=O)[C@H](CC(=O)O)NC(=O)[C@H](Cc1ccccc1)NC(=O)[C@@H](N)CC(=O)O)C(=O)N[C@@H](CC(C)C)C(=O)NCC(=O)NCCOCCOCCOCC(=O)Nc1ccc2c(C)c3c(c(O)c2c1O)C(=O)[C@]1(O)C(=O)C(C(N)=O)=C(O)[C@@H](N(C)C)[C@@H]1C3 (H-DFDLDMLG[AEEEA]-X1) | – | 150
3 | CSCC[C@H](NC(=O)[C@H](CC(=O)O)NC(=O)[C@H](CC(C)C)NC(=O)[C@H](CC(=O)O)NC(=O)[C@H](Cc1ccccc1)NC(=O)[C@H](CC(=O)O)NC(=O)CNC(=O)[C@H](CC(C)C)NC(=O)[C@H](CCSC)NC(=O)[C@H](CC(=O)O)NC(=O)[C@H](CC(C)C)NC(=O)[C@H](CC(=O)O)NC(=O)[C@H](Cc1ccccc1)NC(=O)[C@H](CC(=O)O)NC(=O)COCCOCCOCCN)C(=O)N[C@@H](CC(C)C)C(=O)NCC(=O)NCCOCCOCCOCC(=O)Nc1ccc2c(C)c3c(c(O)c2c1O)C(=O)[C@]1(O)C(=O)C(C(N)=O)=C(O)[C@@H](N(C)C)[C@@H]1C3 (H-[AEEEA]DFDLDMLGDFDLDMLG[AEEEA]-X1) | 9 | 190
